# According to patent US9340590B2 (priority 2011, dated 2016):
# What was measured:
# Assay in all cases: cell-based
# [1] = target: hNav1.3 (Homo sapiens, UniProt Q9NY46); settings: IonWorks Quattro, use-dependent block, hNav1.3; read-out: IWQ Use Nav1.3
# [2] = target: hNav1.7 (Homo sapiens, UniProt Q15858); assay type: cell-based; settings: IonWorks Quattro, use-dependent block, hNav1.7; read-out: IWQ Use Nav1.7
# [3] = target: hNav1.5 (Homo sapiens, UniProt Q14524); settings: IonWorks Quattro, use-dependent block, hNav1.5; read-out: IWQ Use Nav1.5
# hNav1.3, sequence (Q9NY46 whole entry, looked up): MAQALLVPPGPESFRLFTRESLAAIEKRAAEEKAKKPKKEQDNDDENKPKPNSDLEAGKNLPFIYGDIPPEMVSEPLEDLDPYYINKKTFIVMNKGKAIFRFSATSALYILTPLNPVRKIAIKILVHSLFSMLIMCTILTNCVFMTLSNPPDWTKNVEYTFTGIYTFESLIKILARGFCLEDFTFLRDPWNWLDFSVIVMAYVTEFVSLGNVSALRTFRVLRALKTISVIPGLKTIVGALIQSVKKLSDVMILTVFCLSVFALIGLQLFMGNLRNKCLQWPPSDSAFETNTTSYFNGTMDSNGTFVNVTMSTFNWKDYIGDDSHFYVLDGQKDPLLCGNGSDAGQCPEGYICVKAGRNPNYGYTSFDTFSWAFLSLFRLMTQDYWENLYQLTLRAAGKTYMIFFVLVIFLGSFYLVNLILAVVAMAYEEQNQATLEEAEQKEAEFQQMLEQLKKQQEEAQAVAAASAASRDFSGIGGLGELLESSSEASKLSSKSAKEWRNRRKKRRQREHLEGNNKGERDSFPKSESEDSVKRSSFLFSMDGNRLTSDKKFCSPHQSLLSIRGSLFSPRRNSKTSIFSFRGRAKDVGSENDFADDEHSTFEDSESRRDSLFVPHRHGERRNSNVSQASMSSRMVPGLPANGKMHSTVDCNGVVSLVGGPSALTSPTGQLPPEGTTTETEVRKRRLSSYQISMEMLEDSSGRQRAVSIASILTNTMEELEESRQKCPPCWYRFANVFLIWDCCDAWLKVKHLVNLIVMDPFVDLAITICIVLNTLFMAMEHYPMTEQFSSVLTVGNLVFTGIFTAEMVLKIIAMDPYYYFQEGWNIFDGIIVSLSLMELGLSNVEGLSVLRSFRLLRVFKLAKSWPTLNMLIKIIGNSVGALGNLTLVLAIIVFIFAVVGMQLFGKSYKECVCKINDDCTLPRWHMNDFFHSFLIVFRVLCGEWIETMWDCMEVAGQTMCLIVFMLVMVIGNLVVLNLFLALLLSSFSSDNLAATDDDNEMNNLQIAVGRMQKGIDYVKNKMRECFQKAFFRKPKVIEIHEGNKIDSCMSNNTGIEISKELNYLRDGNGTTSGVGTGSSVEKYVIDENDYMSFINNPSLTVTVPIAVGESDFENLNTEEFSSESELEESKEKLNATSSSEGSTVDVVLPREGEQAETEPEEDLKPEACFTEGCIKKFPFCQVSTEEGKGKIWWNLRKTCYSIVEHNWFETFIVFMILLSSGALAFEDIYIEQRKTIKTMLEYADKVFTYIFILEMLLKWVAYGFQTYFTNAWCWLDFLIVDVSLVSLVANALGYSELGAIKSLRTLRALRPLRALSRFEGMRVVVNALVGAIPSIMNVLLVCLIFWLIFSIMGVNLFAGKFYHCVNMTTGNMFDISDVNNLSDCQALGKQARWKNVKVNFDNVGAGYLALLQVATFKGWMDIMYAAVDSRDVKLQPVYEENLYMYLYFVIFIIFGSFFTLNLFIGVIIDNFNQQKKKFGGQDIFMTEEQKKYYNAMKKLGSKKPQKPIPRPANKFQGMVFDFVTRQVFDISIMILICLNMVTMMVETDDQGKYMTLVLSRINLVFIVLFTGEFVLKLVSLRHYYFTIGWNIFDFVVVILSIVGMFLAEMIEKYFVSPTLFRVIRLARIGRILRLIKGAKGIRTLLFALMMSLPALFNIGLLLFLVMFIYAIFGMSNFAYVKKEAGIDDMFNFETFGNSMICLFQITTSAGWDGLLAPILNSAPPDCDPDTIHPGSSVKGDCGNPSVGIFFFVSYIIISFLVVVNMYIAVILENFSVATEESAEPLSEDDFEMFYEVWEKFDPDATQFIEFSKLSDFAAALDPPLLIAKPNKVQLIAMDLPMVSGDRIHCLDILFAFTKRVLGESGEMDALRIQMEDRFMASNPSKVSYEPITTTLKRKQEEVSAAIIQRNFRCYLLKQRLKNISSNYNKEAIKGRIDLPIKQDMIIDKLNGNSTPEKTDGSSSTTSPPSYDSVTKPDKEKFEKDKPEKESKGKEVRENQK
# hNav1.7, sequence (Q15858 whole entry, looked up): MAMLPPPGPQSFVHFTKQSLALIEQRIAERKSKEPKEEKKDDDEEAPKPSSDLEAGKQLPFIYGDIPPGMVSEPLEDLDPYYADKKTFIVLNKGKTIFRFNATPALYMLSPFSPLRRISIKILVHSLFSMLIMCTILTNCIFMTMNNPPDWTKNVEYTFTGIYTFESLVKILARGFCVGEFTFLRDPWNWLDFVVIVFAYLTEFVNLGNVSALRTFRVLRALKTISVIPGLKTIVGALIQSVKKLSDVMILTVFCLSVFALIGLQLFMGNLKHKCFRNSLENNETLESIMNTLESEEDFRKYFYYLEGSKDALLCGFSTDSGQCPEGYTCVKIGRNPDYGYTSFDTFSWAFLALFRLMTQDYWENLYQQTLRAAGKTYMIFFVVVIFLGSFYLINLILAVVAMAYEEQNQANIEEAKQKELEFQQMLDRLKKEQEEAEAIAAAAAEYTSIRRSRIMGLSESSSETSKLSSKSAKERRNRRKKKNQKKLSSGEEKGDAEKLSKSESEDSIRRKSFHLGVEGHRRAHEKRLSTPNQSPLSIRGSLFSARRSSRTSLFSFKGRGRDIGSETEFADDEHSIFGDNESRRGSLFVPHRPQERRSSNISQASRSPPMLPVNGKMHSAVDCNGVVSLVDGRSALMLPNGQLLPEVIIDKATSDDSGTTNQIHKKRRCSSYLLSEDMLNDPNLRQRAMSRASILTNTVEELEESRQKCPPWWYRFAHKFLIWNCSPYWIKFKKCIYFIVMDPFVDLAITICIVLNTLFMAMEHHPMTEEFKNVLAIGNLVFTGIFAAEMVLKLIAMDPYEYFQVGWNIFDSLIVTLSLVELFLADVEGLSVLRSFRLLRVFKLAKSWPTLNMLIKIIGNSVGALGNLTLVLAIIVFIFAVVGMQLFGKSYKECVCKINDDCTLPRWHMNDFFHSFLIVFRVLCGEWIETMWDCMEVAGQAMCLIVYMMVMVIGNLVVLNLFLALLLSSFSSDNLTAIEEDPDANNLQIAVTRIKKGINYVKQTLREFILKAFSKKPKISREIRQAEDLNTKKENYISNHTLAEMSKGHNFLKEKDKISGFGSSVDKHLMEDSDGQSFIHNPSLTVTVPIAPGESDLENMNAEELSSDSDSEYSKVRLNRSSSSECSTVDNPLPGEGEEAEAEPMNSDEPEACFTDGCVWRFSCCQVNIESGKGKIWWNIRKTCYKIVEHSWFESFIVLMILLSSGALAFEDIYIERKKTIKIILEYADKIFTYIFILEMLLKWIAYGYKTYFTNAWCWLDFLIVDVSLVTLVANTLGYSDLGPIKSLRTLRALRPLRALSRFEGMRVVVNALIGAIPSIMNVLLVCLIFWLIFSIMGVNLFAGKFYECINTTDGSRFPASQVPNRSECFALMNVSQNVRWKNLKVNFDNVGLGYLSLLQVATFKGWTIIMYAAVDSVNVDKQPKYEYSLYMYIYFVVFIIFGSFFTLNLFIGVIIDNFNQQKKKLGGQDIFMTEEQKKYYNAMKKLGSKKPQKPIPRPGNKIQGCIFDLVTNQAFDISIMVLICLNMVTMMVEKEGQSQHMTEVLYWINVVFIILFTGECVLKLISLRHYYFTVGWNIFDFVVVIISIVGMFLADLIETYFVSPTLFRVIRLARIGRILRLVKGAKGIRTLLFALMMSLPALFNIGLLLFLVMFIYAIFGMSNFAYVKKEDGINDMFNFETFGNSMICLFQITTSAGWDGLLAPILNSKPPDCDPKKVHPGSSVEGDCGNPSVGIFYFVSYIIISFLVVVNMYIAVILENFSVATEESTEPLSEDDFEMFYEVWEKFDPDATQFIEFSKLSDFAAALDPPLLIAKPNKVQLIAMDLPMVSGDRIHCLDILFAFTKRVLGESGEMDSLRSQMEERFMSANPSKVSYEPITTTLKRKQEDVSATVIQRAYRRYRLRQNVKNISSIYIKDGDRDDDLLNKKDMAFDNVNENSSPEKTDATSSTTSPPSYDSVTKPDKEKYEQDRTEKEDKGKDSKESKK
smiles,measurement,setting,value
CC[C@H](C)[C@@H]1NC(=O)[C@@H]2CSSC[C@@H]3NC(=O)[C@H](C(C)C)NC(=O)[C@H](CC(C)C)NC(=O)[C@H](CC(N)=O)NC(=O)[C@@H]4CCCN4C(=O)[C@H](CCCNC(=N)N)NC(=O)[C@H](CSSC[C@H](NC(=O)[C@@H](N)CC(=O)O)C(=O)N[C@@H](CC(C)C)C(=O)NCC(=O)N[C@@H](C)C(=O)N[C@@H](Cc4ccccc4)C(=O)N[C@@H](CCCNC(=N)N)C(=O)N[C@@H](CCCCN)C(=O)N2)NC(=O)[C@H](CSSC[C@@H](C(=O)N[C@@H](CCCCN)C(=O)N[C@@H](Cc2ccc(O)cc2)C(=O)N[C@H](C(=O)N[C@@H](Cc2ccccc2)C(=O)O)C(C)C)NC(=O)[C@H](Cc2c[nH]c4ccccc24)NC(=O)[C@H](CCCNC(=N)N)NC(=O)[C@H](Cc2c[nH]cn2)NC(=O)[C@H]([C@@H](C)O)NC(=O)[C@H](CCCNC(=N)N)NC(=O)[C@H](CO)NC3=O)NC(=O)[C@H](CCCCN)NC(=O)[C@H](CC(=O)O)NC(=O)CNC(=O)[C@H](CC(=O)O)NC(=O)[C@@H]2CCCN2C1=O [compound 840],IC50,[1],1.5 µM
same,IC50,[2],> 5 µM
same,IC50,[3],> 5 µM
CC[C@H](C)[C@@H]1NC(=O)[C@@H]2CSSC[C@@H]3NC(=O)[C@H](C(C)C)NC(=O)[C@H](CC(C)C)NC(=O)[C@H](CC(N)=O)NC(=O)[C@@H]4CCCN4C(=O)[C@H](CCCNC(=N)N)NC(=O)[C@H](CSSC[C@H](NC(=O)[C@@H](N)CC(=O)O)C(=O)N[C@@H](CC(C)C)C(=O)NCC(=O)N[C@@H](C)C(=O)N[C@@H](Cc4ccccc4)C(=O)N[C@@H](CCCNC(=N)N)C(=O)N[C@@H](CCCCN)C(=O)N2)NC(=O)[C@H](CSSC[C@@H](C(=O)N[C@@H](CCCCN)C(=O)N[C@@H](Cc2ccc(O)cc2)C(=O)N[C@H](C(=O)N[C@@H](Cc2ccccc2)C(=O)O)C(C)C)NC(=O)[C@H](Cc2c[nH]c4ccccc24)NC(=O)[C@H](CCCNC(=N)N)NC(=O)[C@H](Cc2c[nH]cn2)NC(=O)[C@H]([C@@H](C)O)NC(=O)[C@H](CCCNC(=N)N)NC(=O)[C@H](CO)NC3=O)NC(=O)[C@H](CCCCN)NC(=O)[C@H](CC(=O)O)NC(=O)[C@H](Cc2c[nH]cn2)NC(=O)[C@H](CC(=O)O)NC(=O)[C@@H]2CCCN2C1=O [compound 841],IC50,[1],> 5 µM
same,IC50,[2],> 5 µM
same,IC50,[3],> 5 µM
CC[C@H](C)[C@@H]1NC(=O)[C@H](CC(=O)O)NC(=O)[C@@H]2CCCN2C(=O)[C@H]([C@@H](C)CC)NC(=O)[C@@H]2CSSC[C@@H]3NC(=O)[C@H](C(C)C)NC(=O)[C@H](CC(C)C)NC(=O)[C@H](CC(N)=O)NC(=O)[C@@H]4CCCN4C(=O)[C@H](CCCNC(=N)N)NC(=O)[C@H](CSSC[C@H](NC(=O)[C@@H](N)CC(=O)O)C(=O)N[C@@H](CC(C)C)C(=O)NCC(=O)N[C@@H](C)C(=O)N[C@@H](Cc4ccccc4)C(=O)N[C@@H](CCCNC(=N)N)C(=O)N[C@@H](CCCCN)C(=O)N2)NC(=O)[C@H](CSSC[C@@H](C(=O)N[C@@H](CCCCN)C(=O)N[C@@H](Cc2ccc(O)cc2)C(=O)N[C@H](C(=O)N[C@@H](Cc2ccccc2)C(=O)O)C(C)C)NC(=O)[C@H](Cc2c[nH]c4ccccc24)NC(=O)[C@H](CCCNC(=N)N)NC(=O)[C@H](Cc2c[nH]cn2)NC(=O)[C@H]([C@@H](C)O)NC(=O)[C@H](CCCNC(=N)N)NC(=O)[C@H](CO)NC3=O)NC(=O)[C@H](CCCCN)NC(=O)[C@H](CC(=O)O)NC1=O [compound 842],IC50,[1],3 µM
same,IC50,[2],> 5 µM
same,IC50,[3],> 5 µM
CC[C@H](C)[C@@H]1NC(=O)[C@@H]2CSSC[C@@H]3NC(=O)[C@H](C(C)C)NC(=O)[C@H](CC(C)C)NC(=O)[C@H](CC(N)=O)NC(=O)[C@@H]4CCCN4C(=O)[C@H](CCCNC(=N)N)NC(=O)[C@H](CSSC[C@H](NC(=O)[C@@H](N)CC(=O)O)C(=O)N[C@@H](CC(C)C)C(=O)NCC(=O)N[C@@H](C)C(=O)N[C@@H](Cc4ccccc4)C(=O)N[C@@H](CCCNC(=N)N)C(=O)N[C@@H](CCCCN)C(=O)N2)NC(=O)[C@H](CSSC[C@@H](C(=O)N[C@@H](CCCCN)C(=O)N[C@@H](Cc2ccc(O)cc2)C(=O)N[C@H](C(=O)N[C@@H](Cc2ccccc2)C(=O)O)C(C)C)NC(=O)[C@H](Cc2c[nH]c4ccccc24)NC(=O)[C@H](CCCNC(=N)N)NC(=O)[C@H](Cc2c[nH]cn2)NC(=O)[C@H]([C@@H](C)O)NC(=O)[C@H](CCCNC(=N)N)NC(=O)[C@H](CO)NC3=O)NC(=O)[C@H](CCCCN)NC(=O)[C@H](CC(=O)O)NC(=O)[C@H](CCCCN)NC(=O)[C@H](CC(=O)O)NC(=O)[C@@H]2CCCN2C1=O [compound 843],IC50,[1],0.3 µM
same,IC50,[2],3.6 µM
same,IC50,[3],2.8 µM
CC[C@H](C)[C@@H]1NC(=O)[C@@H]2CSSC[C@@H]3NC(=O)[C@H](C(C)C)NC(=O)[C@H](CC(C)C)NC(=O)[C@H](CC(N)=O)NC(=O)[C@@H]4CCCN4C(=O)[C@H](CCCNC(=N)N)NC(=O)[C@H](CSSC[C@H](NC(=O)[C@@H](N)CC(=O)O)C(=O)N[C@@H](CC(C)C)C(=O)NCC(=O)N[C@@H](C)C(=O)N[C@@H](Cc4ccccc4)C(=O)N[C@@H](CCCNC(=N)N)C(=O)N[C@@H](CCCCN)C(=O)N2)NC(=O)[C@H](CSSC[C@@H](C(=O)N[C@@H](CCCCN)C(=O)N[C@@H](Cc2ccc(O)cc2)C(=O)N[C@H](C(=O)N[C@@H](Cc2ccccc2)C(=O)O)C(C)C)NC(=O)[C@H](Cc2c[nH]c4ccccc24)NC(=O)[C@H](CCCNC(=N)N)NC(=O)[C@H](Cc2c[nH]cn2)NC(=O)[C@H]([C@@H](C)O)NC(=O)[C@H](CCCNC(=N)N)NC(=O)[C@H](CO)NC3=O)NC(=O)[C@H](CCCCN)NC(=O)[C@H](CC(=O)O)NC(=O)[C@H](CC(C)C)NC(=O)[C@H](CC(=O)O)NC(=O)[C@@H]2CCCN2C1=O [compound 844],IC50,[1],4.5 µM
same,IC50,[2],4.5 µM
same,IC50,[3],> 5 µM
CC[C@H](C)[C@@H]1NC(=O)[C@@H]2CSSC[C@@H]3NC(=O)[C@H](C(C)C)NC(=O)[C@H](CC(C)C)NC(=O)[C@H](CC(N)=O)NC(=O)[C@@H]4CCCN4C(=O)[C@H](CCCNC(=N)N)NC(=O)[C@H](CSSC[C@H](NC(=O)[C@@H](N)CC(=O)O)C(=O)N[C@@H](CC(C)C)C(=O)NCC(=O)N[C@@H](C)C(=O)N[C@@H](Cc4ccccc4)C(=O)N[C@@H](CCCNC(=N)N)C(=O)N[C@@H](CCCCN)C(=O)N2)NC(=O)[C@H](CSSC[C@@H](C(=O)N[C@@H](CCCCN)C(=O)N[C@@H](Cc2ccc(O)cc2)C(=O)N[C@H](C(=O)N[C@@H](Cc2ccccc2)C(=O)O)C(C)C)NC(=O)[C@H](Cc2c[nH]c4ccccc24)NC(=O)[C@H](CCCNC(=N)N)NC(=O)[C@H](Cc2c[nH]cn2)NC(=O)[C@H]([C@@H](C)O)NC(=O)[C@H](CCCNC(=N)N)NC(=O)[C@H](CO)NC3=O)NC(=O)[C@H](CCCCN)NC(=O)[C@H](CC(=O)O)NC(=O)[C@H](CCSC)NC(=O)[C@H](CC(=O)O)NC(=O)[C@@H]2CCCN2C1=O [compound 845],IC50,[1],0.8 µM
same,IC50,[2],4.7 µM
same,IC50,[3],> 5 µM
CC[C@H](C)[C@@H]1NC(=O)[C@@H]2CSSC[C@@H]3NC(=O)[C@H](C(C)C)NC(=O)[C@H](CC(C)C)NC(=O)[C@H](CC(N)=O)NC(=O)[C@@H]4CCCN4C(=O)[C@H](CCCNC(=N)N)NC(=O)[C@H](CSSC[C@H](NC(=O)[C@@H](N)CC(=O)O)C(=O)N[C@@H](CC(C)C)C(=O)NCC(=O)N[C@@H](C)C(=O)N[C@@H](Cc4ccccc4)C(=O)N[C@@H](CCCNC(=N)N)C(=O)N[C@@H](CCCCN)C(=O)N2)NC(=O)[C@H](CSSC[C@@H](C(=O)N[C@@H](CCCCN)C(=O)N[C@@H](Cc2ccc(O)cc2)C(=O)N[C@H](C(=O)N[C@@H](Cc2ccccc2)C(=O)O)C(C)C)NC(=O)[C@H](Cc2c[nH]c4ccccc24)NC(=O)[C@H](CCCNC(=N)N)NC(=O)[C@H](Cc2c[nH]cn2)NC(=O)[C@H]([C@@H](C)O)NC(=O)[C@H](CCCNC(=N)N)NC(=O)[C@H](CO)NC3=O)NC(=O)[C@H](CCCCN)NC(=O)[C@H](CC(=O)O)NC(=O)[C@@H]2CCCN2C(=O)[C@H](CC(=O)O)NC(=O)[C@@H]2CCCN2C1=O [compound 846],IC50,[1],2.9 µM
same,IC50,[2],2.9 µM
same,IC50,[3],> 5 µM
CC[C@H](C)[C@@H]1NC(=O)[C@@H]2CSSC[C@@H]3NC(=O)[C@H](C(C)C)NC(=O)[C@H](CC(C)C)NC(=O)[C@H](CC(N)=O)NC(=O)[C@@H]4CCCN4C(=O)[C@H](CCCNC(=N)N)NC(=O)[C@H](CSSC[C@H](NC(=O)[C@@H](N)CC(=O)O)C(=O)N[C@@H](CC(C)C)C(=O)NCC(=O)N[C@@H](C)C(=O)N[C@@H](Cc4ccccc4)C(=O)N[C@@H](CCCNC(=N)N)C(=O)N[C@@H](CCCCN)C(=O)N2)NC(=O)[C@H](CSSC[C@@H](C(=O)N[C@@H](CCCCN)C(=O)N[C@@H](Cc2ccc(O)cc2)C(=O)N[C@H](C(=O)N[C@@H](Cc2ccccc2)C(=O)O)C(C)C)NC(=O)[C@H](Cc2c[nH]c4ccccc24)NC(=O)[C@H](CCCNC(=N)N)NC(=O)[C@H](Cc2c[nH]cn2)NC(=O)[C@H]([C@@H](C)O)NC(=O)[C@H](CCCNC(=N)N)NC(=O)[C@H](CO)NC3=O)NC(=O)[C@H](CCCCN)NC(=O)[C@H](CC(=O)O)NC(=O)[C@H](CCC(N)=O)NC(=O)[C@H](CC(=O)O)NC(=O)[C@@H]2CCCN2C1=O [compound 847],IC50,[1],1.7 µM
same,IC50,[2],> 5 µM
same,IC50,[3],> 5 µM
CC[C@H](C)[C@@H]1NC(=O)[C@@H]2CSSC[C@@H]3NC(=O)[C@H](C(C)C)NC(=O)[C@H](CC(C)C)NC(=O)[C@H](CC(N)=O)NC(=O)[C@@H]4CCCN4C(=O)[C@H](CCCNC(=N)N)NC(=O)[C@H](CSSC[C@H](NC(=O)[C@@H](N)CC(=O)O)C(=O)N[C@@H](CC(C)C)C(=O)NCC(=O)N[C@@H](C)C(=O)N[C@@H](Cc4ccccc4)C(=O)N[C@@H](CCCNC(=N)N)C(=O)N[C@@H](CCCCN)C(=O)N2)NC(=O)[C@H](CSSC[C@@H](C(=O)N[C@@H](CCCCN)C(=O)N[C@@H](Cc2ccc(O)cc2)C(=O)N[C@H](C(=O)N[C@@H](Cc2ccccc2)C(=O)O)C(C)C)NC(=O)[C@H](Cc2c[nH]c4ccccc24)NC(=O)[C@H](CCCNC(=N)N)NC(=O)[C@H](Cc2c[nH]cn2)NC(=O)[C@H]([C@@H](C)O)NC(=O)[C@H](CCCNC(=N)N)NC(=O)[C@H](CO)NC3=O)NC(=O)[C@H](CCCCN)NC(=O)[C@H](CC(=O)O)NC(=O)[C@H](CCCNC(=N)N)NC(=O)[C@H](CC(=O)O)NC(=O)[C@@H]2CCCN2C1=O [compound 848],IC50,[1],0.6 µM
same,IC50,[2],4.5 µM
same,IC50,[3],> 5 µM
